Entries after “also recorded” stand apart in the source; their conditions may differ. Read-outs that look alike come from different tables or passages of the source.
Tests used:
[1] = after intravenous administration; cited from earlier work
CFU-E and CFU-GM = settings: doses manifold higher than highly toxic doses of FUrd
[2] = in vivo
Excerpt: One of the drawbacks of using intravenously administered 5-Fluorouracil is bone marrow suppression, expressed clinically by increased susceptibility to infections and fatigue.

[3] = man
[4] = oral administration, rhesus monkeys
bone marrow cells = assay: bone marrow toxicity after intravenous doses; format: in vivo; settings: single and repeated intravenous doses
[5] = oral administration, mice
[6] = mice, up to highest single p.o. dose tested of 3.8 g/kg
[7] = system: primary human keratinocytes
SCLC xenograft = settings: mice, dose-dependent, maximum inhibition
actinic keratosis = assay: oral Fosfluridine Tidoxil in patients with advanced actinic keratosis; format: in vivo, human
Procedure: A person was suffering from an advanced actinic keratosis since more than 3 years. In this time they received different types of topical treatment, such as Solaraze (3% Diclofenac) or Aldara (Imiquimod). Thereafter they were treated with 50 mg of Fosfluridine Tidoxil (1 capsule). The patient received 3 cycles each cycle consisting of a once daily oral administration over 7 days followed by a treatment free week (two weeks per cycle).
A patient was diagnosed to have an actinic keratosis 15 years before and was now in an advanced stage. In the years before taking Fosfluridine Tidoxil they were, in essence, treated with Solaraze. Since the therapeutic benefit appears to be limited they then received 100 mg of oral Fosfluridine Tidoxil (2 capsules of 50 mg) over 3 cycles (as mentioned above).
A person with a first diagnosis of Actinic keratosis 1.6 years before use of Fosfluridine Tidoxil was treated topically, however, eventually without therapeutic benefit. […] They then received 100 mg of oral Fosfluridine Tidoxil (2 capsules of 50 mg) over 3 cycles (as described above). […] This patient was not treated over the next four months with any topical.
A patient suffered from Actinic keratosis for more than 7 years and was now in an advanced stage. […] […], then, received 100 mg of oral Fosfluridine Tidoxil (2 capsules of 50 mg) over 3 cycles (as de-scribed above). […] In the next 2 month this patient was not treated with any topical.

O=c1[nH]cc(F)c(=O)[nH]1 [Example 5-FU, 5-Fluorouracil]
drug eliminated within the first hour [1]: Over 90%

CCCCCCCCCCCCSCC(COP(=O)([O-])OCC1OC(n2cc(F)c(=O)[nH]c2=O)C(O)C1O)OCCCCCCCCCC.[Na+] (stereo not shown) [FT, (5-fluorouridine)-5′-phosphoric acid (3-dodecylmercapto-2-decyloxy)propylester, Na-salt]
suppression of in vitro colony formation of CFU-E and CFU-GM (CFU-E and CFU-GM): did not suppress | distribution to the bone marrow [2]: not distributed to the bone marrow | plasma concentrations of 5-FU and 5-FUrd after administration of FT [3]: negligible | plasma half-life ([3]; oral administration): > 20 h | plasma half-life [4]: 8 to 10 h | bone marrow toxicity (bone marrow cells): did not result in bone marrow toxicity | plasma half-life [5]: 4 to 5 h | mortality in acute tolerability study [6]: no animal died | effectiveness in proliferating compared to non-proliferating keratinocytes [7]: far more effective in proliferating primary human keratinocytes | inhibition of SCLC xenograft tumor growth (SCLC xenograft): up to 82% | reduction of lesion count (actinic keratosis; 50 mg oral once daily, 3 cycles (7 days on, 7 days off), plus one month of observation): 34% | histological stage of lesions (actinic keratosis; 50 mg oral once daily, 3 cycles, plus one month of observation, most severe area): reduced from stage 3 to stage 1 | histological stage of lesions (actinic keratosis; 100 mg oral once daily, 3 cycles, plus one month of observation, listed as Fosfluridine Tidoxil): decreased from class 2 to class 1; also recorded: reduced from class 3 to class 2; also recorded: reduced from 3 to 1 | outcome in follow-up without any topical treatment (actinic keratosis; after 100 mg oral, 3 cycles, next 2-4 months without topical, listed as Fosfluridine Tidoxil): all actinic keratoses have disappeared; also recorded: all actinic lesions have disappeared

O=c1[nH]c(=O)n([C@@H]2O[C@H](CO)[C@@H](O)[C@H]2O)cc1F [Example 5-FUrd, 5-Fluorouridine, reference compound]
bone marrow toxicity (bone marrow cells): dose-dependently suppressed bone marrow cells

Source: patent US7378401B2, “Use of Fosfluridine Tidoxil (FT) for the treatment of intraepithelial proliferative diseases” (Heidelberg Pharma GmbH, priority 2006, dated 2008)
